Like-named read-outs stand apart in the source and are kept apart here. *1 amine or outer side, *2 acyl side, *3 side chain or, on linkers, in order; H or OH if unused. Where a SMILES comes first, the peptide text is derived from it. Side-chain parts run from the residue outwards. [ ]: non-standard residue; d: D form. The star is where a group is joined. αMePhe(2-F) = C[C@](N)(Cc1ccccc1F)C(=O)O; γGlu = O=C(O)[C@H](CCC(=O)[*:2])N[*:1]; C14 diacid = O=C(O)CCCCCCCCCCCCC(=O)*; αMeY = C[C@](N)(Cc1ccc(O)cc1)C(=O)O; 4Pal = N[C@@H](Cc1ccncc1)C(=O)O; αMeL = CC(C)C[C@](C)(N)C(=O)O; Orn = NCCC[C@H](N)C(=O)O; AEEA = NCCOCCOCC(=O)O; Aib = CC(C)(N)C(=O)O
Columns and labels:
Type in all cases: cell-based
[1] = molecular target: T1, hGIPR (Homo sapiens, UniProt P48546); test: Functional cAMP formation (HTRF) in HEK-293 clonal cells expressing hGIPR, 0.1% bovine casein, without or with 1.0% human serum albumin; conditions: for Emax: 37° C., read-out: hGIPR Emax, % ± SEM; for EC50: cAMP, incubated at 37° C., 0.1% bovine casein (no human serum albumin), geometric mean, read-out: hGIPR EC50, nM (SEM, n)
T1 construct: expressed in transfected cells
T1 sequence (P48546 22-466): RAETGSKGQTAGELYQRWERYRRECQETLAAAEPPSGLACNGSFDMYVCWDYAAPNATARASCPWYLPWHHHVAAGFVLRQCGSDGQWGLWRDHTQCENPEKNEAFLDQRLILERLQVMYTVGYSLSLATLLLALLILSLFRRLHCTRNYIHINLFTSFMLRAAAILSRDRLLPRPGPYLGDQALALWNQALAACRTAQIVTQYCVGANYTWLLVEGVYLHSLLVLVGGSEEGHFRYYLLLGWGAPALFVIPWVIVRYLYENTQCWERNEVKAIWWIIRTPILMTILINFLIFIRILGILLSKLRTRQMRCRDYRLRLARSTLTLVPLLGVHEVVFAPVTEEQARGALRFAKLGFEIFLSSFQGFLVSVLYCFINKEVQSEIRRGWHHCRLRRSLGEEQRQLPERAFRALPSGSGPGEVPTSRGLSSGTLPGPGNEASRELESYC
Outline: (§1)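 Cells were stimulated with peptide for 30 min at 37° C, then intracellular cAMP was measured by competitive HTRF (665/620 nm ratio) and converted to nM using a cAMP standard curve. Relative EC50 and Emax came from four-parameter logistic fits of percent maximal response against peptide concentration.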

[2] = molecular target: T2, hGCGR (Homo sapiens, UniProt P47871); test: Functional cAMP formation (HTRF) in HEK-293 clonal cells expressing hGCGR, 0.1% bovine casein, without or with 1.0% human serum albumin; conditions: geometric mean, read-out: hGCGR EC50, nM (SEM, n)
T2 construct: expressed in transfected cells
Outline: as §1

[3] = molecular target: hGLP-1R (Homo sapiens, UniProt P43220); test: Functional cAMP formation (HTRF) in HEK-293 clonal cells expressing hGLP-1R, 0.1% bovine casein, without or with 1.0% human serum albumin; parameters: expressed in transfected cells; conditions: for Emax: read-out: hGLP-1R Emax, % ± SEM; for EC50: geometric mean, read-out: hGLP-1R EC50, nM (SEM, n)
Outline: as §1

[4] = HEK293, percent of maximal response to GIP(1-42)NH2, 0.1% bovine casein, arithmetic mean
[5] = 0.1% bovine casein and 1.0% human serum albumin, 37° C.
[6] = cAMP, incubated at 37° C., 0.1% bovine casein (no human serum albumin)
[7] = HEK293, 0.1% bovine casein and 1.0% human serum albumin, 37° C., percent of maximal response to GLP-1(7-36)NH2
[8] = HEK293, 0.1% bovine casein and 1.0% human serum albumin, percent of maximal response to GIP(1-42)NH2

Chain of hGLP-1R (P43220 24-463): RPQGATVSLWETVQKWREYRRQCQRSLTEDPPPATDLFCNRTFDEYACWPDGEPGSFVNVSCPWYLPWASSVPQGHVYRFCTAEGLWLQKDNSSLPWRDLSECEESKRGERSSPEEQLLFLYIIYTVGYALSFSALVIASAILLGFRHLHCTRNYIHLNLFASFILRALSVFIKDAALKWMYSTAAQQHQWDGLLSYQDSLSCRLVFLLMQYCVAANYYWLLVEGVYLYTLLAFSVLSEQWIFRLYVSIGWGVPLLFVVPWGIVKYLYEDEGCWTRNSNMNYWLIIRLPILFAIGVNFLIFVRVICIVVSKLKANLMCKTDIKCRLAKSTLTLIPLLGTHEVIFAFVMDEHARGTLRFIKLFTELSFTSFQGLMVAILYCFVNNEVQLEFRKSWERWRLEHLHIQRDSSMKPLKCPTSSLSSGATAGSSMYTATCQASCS
T2 sequence (P47871 26-477): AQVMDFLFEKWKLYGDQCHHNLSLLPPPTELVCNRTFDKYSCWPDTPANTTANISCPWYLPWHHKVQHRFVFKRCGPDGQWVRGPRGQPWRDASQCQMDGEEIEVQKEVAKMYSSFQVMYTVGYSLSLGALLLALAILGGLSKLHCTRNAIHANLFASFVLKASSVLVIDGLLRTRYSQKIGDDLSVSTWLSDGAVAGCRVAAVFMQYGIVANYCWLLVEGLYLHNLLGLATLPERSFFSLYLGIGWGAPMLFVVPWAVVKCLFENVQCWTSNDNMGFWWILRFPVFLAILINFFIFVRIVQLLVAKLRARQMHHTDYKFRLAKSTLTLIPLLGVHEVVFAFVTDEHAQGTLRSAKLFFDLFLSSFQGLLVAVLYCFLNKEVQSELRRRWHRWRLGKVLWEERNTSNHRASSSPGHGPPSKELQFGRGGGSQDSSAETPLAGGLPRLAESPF

Row | SMILES | Emax [1, 4] [%] | EC50 [2, 5] [nM] | EC50 [2, 6] [nM] | Emax [3, 7] [%] | Emax [1, 8] [%] | Emax ([3]; HEK293, percent of maximal response to GLP-1(7-36)NH2, 37° C., 0.1% bovine casein, arithmetic mean) [%] | EC50 [3, 6] [nM] | EC50 [1] [nM] | EC50 [3, 5] [nM]
1 | CC[C@H](C)[C@H](NC(=O)[C@H](CC(C)C)NC(=O)[C@](C)(Cc1ccc(O)cc1)NC(=O)[C@@H](CCC(=O)O)NC(=O)[C@@H](NC(=O)[C@H](Cc1ccc2ccccc2c1)NC(=O)[C@H](CCC(=O)O)NC(=O)C(C)(C)NC(=O)[C@H](CCC(N)=O)NC(=O)[C@H](C)NC(=O)[C@H](CCCCNC(=O)COCCOCCNC(=O)COCCOCCNC(=O)CC[C@H](NC(=O)CCCCCCCCCCCCC(=O)O)C(=O)O)NC(=O)[C@H](CCCN)NC(=O)[C@H](CC(=O)O)NC(=O)[C@H](CC(C)C)NC(=O)[C@](C)(CC(C)C)NC(=O)[C@@H](NC(=O)[C@H](CO)NC(=O)[C@H](Cc1ccncc1)NC(=O)[C@H](CC(=O)O)NC(=O)[C@H](CO)NC(=O)[C@@H](NC(=O)[C@](C)(Cc1ccccc1F)NC(=O)[C@@H](NC(=O)CNC(=O)[C@H](CCC(=O)O)NC(=O)C(C)(C)NC(=O)[C@@H](N)Cc1ccc(O)cc1)[C@@H](C)O)[C@@H](C)O)[C@@H](C)CC)[C@@H](C)CC)C(=O)N[C@@H](CCC(=O)O)C(=O)NCC(=O)NCC(=O)N[C@@H](CCCCNC(=O)COCCOCCNC(=O)COCCOCCNC(=O)CC[C@H](NC(=O)CCCCCCCCCCCCC(=O)O)C(=O)O)C(=O)N[C@@H](CO)C(=O)N[C@@H](CO)C(=O)NCC(=O)N[C@@H](C)C(=O)N1CCC[C@H]1C(=O)N1CCC[C@H]1C(=O)N1CCC[C@H]1C(=O)N[C@@H](CO)C(N)=O [Example 99] | 93.4 ± 1.02 | > 9950 | > 9950 | 81.1 | – | – | – | – | –
2 | CC[C@H](C)[C@H](NC(=O)CNC(=O)[C@H](Cc1ccncc1)NC(=O)[C@H](CC(=O)O)NC(=O)[C@H](CO)NC(=O)[C@@H](NC(=O)[C@](C)(Cc1ccccc1F)NC(=O)[C@@H](NC(=O)CNC(=O)[C@H](CCC(=O)O)NC(=O)C(C)(C)NC(=O)[C@@H](N)Cc1ccc(O)cc1)[C@@H](C)O)[C@@H](C)O)C(=O)N[C@@](C)(CC(C)C)C(=O)N[C@@H](CC(C)C)C(=O)N[C@@H](CC(=O)O)C(=O)N[C@@H](CCCN)C(=O)N[C@@H](CCCCNC(=O)COCCOCCNC(=O)COCCOCCNC(=O)CC[C@H](NC(=O)CCCCCCCCCCCCC(=O)O)C(=O)O)C(=O)N[C@@H](C)C(=O)N[C@@H](CCC(N)=O)C(=O)NC(C)(C)C(=O)N[C@@H](CCC(=O)O)C(=O)N[C@@H](Cc1ccccc1)C(=O)N[C@H](C(=O)N[C@H](CCC(=O)O)C(=O)N[C@@](C)(Cc1ccc(O)cc1)C(=O)N[C@@H](CC(C)C)C(=O)N[C@H](C(=O)N[C@@H](CCC(=O)O)C(=O)NCC(=O)NCC(=O)N[C@@H](CCCCNC(=O)COCCOCCNC(=O)COCCOCCNC(=O)CC[C@H](NC(=O)CCCCCCCCCCCCC(=O)O)C(=O)O)C(=O)N[C@@H](CO)C(=O)N[C@@H](CO)C(=O)NCC(=O)N[C@@H](C)C(=O)N1CCC[C@H]1C(=O)N1CCC[C@H]1C(=O)N1CCC[C@H]1C(=O)N[C@@H](CO)C(N)=O)[C@@H](C)CC)[C@@H](C)CC [Example 100] (H-Y[Aib]EGT[αMePhe(2-F)]TSD[4Pal]GI[αMeL]LD[Orn]K([AEEA-AEEA-γGlu-C14 diacid])AQ[Aib]EFI[dE][αMeY]LIEGGK([AEEA-AEEA-γGlu-C14 diacid])SSGAPPPS-NH2; N-terminus assumed) | – | > 9950 | > 9950 | 123 | 98.3 | 111 | 11.4 | – | –
3 | CC[C@H](C)[C@H](NC(=O)[C@H](CC(C)C)NC(=O)[C@](C)(Cc1ccc(O)cc1)NC(=O)[C@@H](CCC(=O)O)NC(=O)[C@@H](NC(=O)[C@H](Cc1ccccc1)NC(=O)[C@H](CCC(=O)O)NC(=O)C(C)(C)NC(=O)[C@H](CCC(N)=O)NC(=O)CNC(=O)[C@H](CCCCNC(=O)COCCOCCNC(=O)COCCOCCNC(=O)CC[C@H](NC(=O)CCCCCCCCCCCCC(=O)O)C(=O)O)NC(=O)[C@H](CCCN)NC(=O)[C@H](CC(=O)O)NC(=O)[C@H](CC(C)C)NC(=O)[C@](C)(CC(C)C)NC(=O)[C@@H](NC(=O)[C@H](CO)NC(=O)[C@H](Cc1ccncc1)NC(=O)[C@H](CC(=O)O)NC(=O)[C@H](CO)NC(=O)[C@@H](NC(=O)[C@](C)(Cc1ccccc1F)NC(=O)[C@@H](NC(=O)CNC(=O)[C@H](CCC(=O)O)NC(=O)C(C)(C)NC(=O)[C@@H](N)Cc1ccc(O)cc1)[C@@H](C)O)[C@@H](C)O)[C@@H](C)CC)[C@@H](C)CC)C(=O)N[C@@H](CCC(=O)O)C(=O)NCC(=O)NCC(=O)N[C@@H](CCCCNC(=O)COCCOCCNC(=O)COCCOCCNC(=O)CC[C@H](NC(=O)CCCCCCCCCCCCC(=O)O)C(=O)O)C(=O)N[C@@H](CO)C(=O)N[C@@H](CO)C(=O)NCC(=O)N[C@@H](C)C(=O)N1CCC[C@H]1C(=O)N1CCC[C@H]1C(=O)N1CCC[C@H]1C(=O)N[C@@H](CO)C(N)=O [Example 102] | – | > 9950 | > 9950 | – | 96.9 | – | 19.1 | – | –
4 | CC[C@H](C)[C@H](NC(=O)[C@H](CC(C)C)NC(=O)[C@](C)(Cc1ccc(O)cc1)NC(=O)[C@@H](CCC(=O)O)NC(=O)[C@@H](NC(=O)[C@H](Cc1ccccc1)NC(=O)CNC(=O)C(C)(C)NC(=O)[C@H](CCC(N)=O)NC(=O)[C@H](C)NC(=O)[C@H](CCCCNC(=O)COCCOCCNC(=O)COCCOCCNC(=O)CC[C@H](NC(=O)CCCCCCCCCCCCC(=O)O)C(=O)O)NC(=O)[C@H](CCCN)NC(=O)[C@H](CC(=O)O)NC(=O)[C@H](CC(C)C)NC(=O)[C@](C)(CC(C)C)NC(=O)[C@@H](NC(=O)[C@H](CO)NC(=O)[C@H](Cc1ccncc1)NC(=O)[C@H](CC(=O)O)NC(=O)[C@H](CO)NC(=O)[C@@H](NC(=O)[C@](C)(Cc1ccccc1F)NC(=O)[C@@H](NC(=O)CNC(=O)[C@H](CCC(=O)O)NC(=O)C(C)(C)NC(=O)[C@@H](N)Cc1ccc(O)cc1)[C@@H](C)O)[C@@H](C)O)[C@@H](C)CC)[C@@H](C)CC)C(=O)N[C@@H](CCC(=O)O)C(=O)NCC(=O)NCC(=O)N[C@@H](CCCCNC(=O)COCCOCCNC(=O)COCCOCCNC(=O)CC[C@H](NC(=O)CCCCCCCCCCCCC(=O)O)C(=O)O)C(=O)N[C@@H](CO)C(=O)N[C@@H](CO)C(=O)NCC(=O)N[C@@H](C)C(=O)N1CCC[C@H]1C(=O)N1CCC[C@H]1C(=O)N1CCC[C@H]1C(=O)N[C@@H](CO)C(N)=O [Example 103] | 92.8 | > 9950 | > 9950 | 96.9 | 94.2 | – | 2.1 | 0.0305 | –
5 | CC[C@H](C)[C@H](NC(=O)[C@H](Cc1ccccc1)NC(=O)[C@H](CCC(=O)O)NC(=O)C(C)(C)NC(=O)[C@H](CCC(N)=O)NC(=O)[C@H](C)NC(=O)[C@H](CCCCNC(=O)COCCOCCNC(=O)COCCOCCNC(=O)CC[C@H](NC(=O)CCCCCCCCCCCCC(=O)O)C(=O)O)NC(=O)[C@H](CCCN)NC(=O)[C@H](CC(=O)O)NC(=O)[C@H](CC(C)C)NC(=O)[C@](C)(CC(C)C)NC(=O)[C@@H](NC(=O)[C@H](CO)NC(=O)[C@H](Cc1ccncc1)NC(=O)[C@H](CC(=O)O)NC(=O)[C@H](CO)NC(=O)[C@@H](NC(=O)[C@](C)(Cc1ccccc1F)NC(=O)[C@@H](NC(=O)CNC(=O)[C@H](CCC(=O)O)NC(=O)C(C)(C)NC(=O)[C@@H](N)Cc1ccc(O)cc1)[C@@H](C)O)[C@@H](C)O)[C@@H](C)CC)C(=O)NCC(=O)N[C@@](C)(Cc1ccc(O)cc1)C(=O)N[C@@H](CC(C)C)C(=O)N[C@H](C(=O)N[C@@H](CCC(=O)O)C(=O)NCC(=O)NCC(=O)N[C@@H](CCCCNC(=O)COCCOCCNC(=O)COCCOCCNC(=O)CC[C@H](NC(=O)CCCCCCCCCCCCC(=O)O)C(=O)O)C(=O)N[C@@H](CO)C(=O)N[C@@H](CO)C(=O)NCC(=O)N[C@@H](C)C(=O)N1CCC[C@H]1C(=O)N1CCC[C@H]1C(=O)N1CCC[C@H]1C(=O)N[C@@H](CO)C(N)=O)[C@@H](C)CC [Example 104] | 94.9 | > 9950 | > 9950 | 95.8 | 95.9 | – | – | 0.0361 | 12.3

Reference: US20230265151A1, “GIP/GLP1 CO-AGONIST COMPOUNDS” (priority 2020, published 2023)
